Each compound was assayed on Sunflower (assay: Test C preemergence). Settings: Rate 250 g/ha, scale 0 to 100, 0 no effect, 100 complete control.
Format: in vivo

Going from `CCC(C)c1ccn(C2CCN(c3ccc(F)c(C(F)(F)F)c3)C2=O)n1` (stereo not shown) [Compound 145] to `CCC(CC)c1ccn(C2CCN(c3ccc(F)c(C(F)(F)F)c3)C2=O)n1` (stereo not shown) [Compound 144], the “Plant response rating, Sunflower” value falls from 50 to 40.

Compared with `CCC(C)c1ccn(C2OCN(c3cccc(OC(F)F)c3)C2=O)n1` (stereo not shown) [Compound 134], `CCCC(C)c1ccn(C2OCN(c3cccc(OC(F)F)c3)C2=O)n1` (stereo not shown) [Compound 132] is higher in “Plant response rating, Sunflower” value: 0 for the first, 20 for the second.

Compared with `CCC(CC)c1ccn(C2CCN(c3ccc(Cl)c(OC)c3)C2=O)n1` (stereo not shown) [Compound 118], `CCOc1cccc(N2CCC(n3ccc(C(C)(C)C)n3)C2=O)c1` (stereo not shown) [Compound 130] is higher in “Plant response rating, Sunflower” value: 60 for the first, 70 for the second.

With `CC(C)(C)c1ccn(C2OCN(c3cccc(OC(F)F)c3)C2=O)n1` (stereo not shown) [Compound 133] the “Plant response rating, Sunflower” value was 0.
